Settings: 101.33 kPa, Liquid, transient hot wire

CCO [ethanol]
Settings	thermal conductivity [W/m/K]
276.51 K	0.1719
280.8 K	0.1687
284.27 K	0.1699
290.37 K	0.1677
293.43 K	0.1658

CCCCCCCCCC(=O)OCC [ethyl decanoate]
Settings	thermal conductivity [W/m/K]
270 K	0.1483
279.98 K	0.1463
289.85 K	0.1442
299.64 K	0.1422
309.6 K	0.14
319.72 K	0.1375
329.53 K	0.1355
339.49 K	0.1332
349.51 K	0.1307
359.46 K	0.1284
369.3 K	0.1266
374.44 K	0.1248
379.49 K	0.1238
389.25 K	0.1214
400.44 K	0.1195

CCCCCCCCCCCC(=O)OCC [ethyl dodecanoate]
Settings	thermal conductivity [W/m/K]
274.73 K	0.151
284.69 K	0.1489
294.56 K	0.1471
304.59 K	0.1446
314.47 K	0.1424
324.41 K	0.1399
334.28 K	0.1377
344.09 K	0.1362
349.21 K	0.1343
354.09 K	0.1334
359.09 K	0.1321
369.13 K	0.1296
379.1 K	0.1275
389.1 K	0.1253
400.08 K	0.1229

CCCCCCC(=O)OCC [ethyl heptanoate]
Settings	thermal conductivity [W/m/K]
250.38 K	0.1482
260.21 K	0.1463
270.16 K	0.1441
280.02 K	0.1414
289.93 K	0.1397
299.84 K	0.137
309.9 K	0.1343
319.73 K	0.1321
329.73 K	0.1294
337.72 K	0.127
341.71 K	0.1259
347.65 K	0.1251
353.6 K	0.1235
363.5 K	0.121
373.51 K	0.1183
383.64 K	0.1155
393.46 K	0.1139

CCCCCCCC(=O)OCC [ethyl octanoate]
Settings	thermal conductivity [W/m/K]
254.76 K	0.1484
264.72 K	0.1462
274.7 K	0.144
284.63 K	0.1422
294.53 K	0.1405
300.47 K	0.1387
307.05 K	0.1366
310.45 K	0.1356
320.37 K	0.1336
330.4 K	0.1312
340.34 K	0.1286
350.38 K	0.1268
360.32 K	0.1234
370.25 K	0.1211
380.17 K	0.1188
390.39 K	0.1167
400.37 K	0.1142

CCCCCCCCCCCCCC(=O)OCC [ethyl tetradecanoate]
Settings	thermal conductivity [W/m/K]
290.64 K	0.1515
298.29 K	0.1501
307.33 K	0.1481
315.2 K	0.1465
324.22 K	0.1448
333.17 K	0.1426
340.99 K	0.1406
350.11 K	0.1383
359.07 K	0.137
367.97 K	0.1342
377.86 K	0.1326
389.06 K	0.1297
393.88 K	0.1286

O [water]
Settings	thermal conductivity [W/m/K]
293.09 K	0.6056
299.55 K	0.613
309.83 K	0.6313
314.96 K	0.6399
319.56 K	0.6399
324.64 K	0.6492
332.53 K	0.6555
339.33 K	0.657
340.41 K	0.6654
349.41 K	0.6723

— the NIST ThermoML archive (doi:10.1016/j.fluid.2018.06.004)
